In US20220135622A1, “ANTIBACTERIAL PEPTIDES AND METHODS OF USE” (priority 2019, published 2022):
Square brackets hold non-standard residues; d marks the D form. Peptide text beside a SMILES is read from it. Dap = NC[C@H](N)C(=O)O

Key:
[1] = test system: K. pneumoniae; assay type: cell-based, Klebsiella pneumoniae; conditions: Table 5; ATCC 43816, WT
In short: (§1)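 For MIC, bacteria (final OD600 ~0.0002) were incubated with 2-fold peptide dilutions (top 400–800 μM) in cation-adjusted MHB II with or without EDTA, 20 h at 37 °C, read by OD600. EDTA was 0.5 mM for E. coli and 0.125 mM for USA300. The growth-inhibition assay used log-phase cells at OD600 ~0.001, 4 h at 37 °C, BacTiter-Glo luminescence.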

[2] = test system: A. baumannii; assay type: cell-based, Acinetobacter baumannii; conditions: Table 5; ATCC 19606, WT
In short: as §1

[3] = test system: E. cloacae; assay: MIC assay, E. cloacae; assay type: cell-based, Enterobacter cloacae; conditions: Table 5; ATCC 222, WT
Description: (§2) Bacterial growth conditions. LB or Mueller Hinton II cation-adjusted broth (MHB II, BBL 212322) was prepared according to manufacturer's instructions and supplemented with arabinose at 0.02% for overnight growth or at indicated concentrations in the description of the figures. Bacterial cultures were grown at 37° C. When appropriate, media was supplemented with kanamycin (50 μg/mL), carbenicillin (50 μg/mL), chloramphenicol (12.5 or 25 μg/mL), hygromycin (200 μg/mL), and/or gentamicin (10 μg/mL).
(§3) Peptide sensitivity and MIC assays. Lyophilized peptides (Smartox Biotechnology, CPC Scientific. ABclonal) were solubilized to 10 mM in Tris buffer, pH 8, prior to making a 2-fold dilution series in MHBII cation adjusted broth with highest final assay concentration of 400-800 μM. Bacteria were grown to log phase and added to final OD600˜0.001. The final EDTA concentration was 0.5 mM for E. coli strains and 0.125 mM for USA300. The final volume of 10 μL/well in a 384 well black, clear bottom plate (Corning) was spun <1 min at <250×g and then incubated at 37° C. After 4 h, an equal volume (10 μL) of BacTiter-Glo™ (Promega) was added to each well and luminescence was read after 5 min on an EnVision plate reader (PerkinElmer). […] Plates were incubated at 37° C. for 20 h before measuring OD600 with an EnVision plate reader.

[4] = test system: E. coli BW25113; assay type: cell-based, Escherichia coli; conditions: Table 5; E. coli K-12 (BW25113), WT
In short: as §1

[5] = test system: E. coli mcr-1; assay type: cell-based, Escherichia coli; conditions: Table 5; colistin^R
In short: as §1

[6] = test system: Enterobacter cloacae, Klebsiella pneumoniae, Acinetobacter baumannii, and Pseudomonas aeruginosa; assay: MIC against wild-type bacterial pathogens (summary over species); assay type: cell-based; conditions: range over the four wild-type pathogens
Description: as §2, §3

[7] = test system: Staphylococcus aureus (USA300); assay: Bacterial growth inhibition, Staphylococcus aureus (USA300); assay type: cell-based; conditions: Gram-positive bacterium lacking LPS
Description: as §2, §3

[8] = test system: E. coli K12; assay: Time-kill: colony forming units of E. coli K12 over time; assay type: cell-based, Escherichia coli; conditions: E. coli K12, FIG. 16A
[9] = test system: P. aeruginosa; assay type: cell-based, Pseudomonas aeruginosa; conditions: Table 5; PA-14, WT
In short: as §1

[10] = test system: S. aureus USA300; assay: MIC assay, S. aureus USA300; assay type: cell-based, Staphylococcus aureus; conditions: Table 5; USA300 Gram-positive control
In short: as §1

[11] = test system: E. coli imp4213; assay: MIC assay, E. coli imp4213; assay type: cell-based, Escherichia coli; conditions: Table 5; permeable
In short: as §1

[12] = test system: red blood cell; assay: Red blood cell lysis assay; assay type: cell-based; conditions: 50 μM, after 4 hrs, FIG. 16B
[13] = test system: E. coli pmrA^G53Y; assay: MIC assay, E. coli pmrA^G53Y (BW25113); assay type: cell-based, Escherichia coli; conditions: Table 5; colistin^R
Description: as §2, §3

[14] = test system: E. coli K-12 (pmrA^G53E and mcr-1); assay: MIC against E. coli K-12 with PMX-resistance determinants (summary); assay type: cell-based, Escherichia coli; conditions: range over pmrA and mcr-1 strains
Description: as §2, §3

[15] = test system: E. coli-ATCC 25922; assay: MIC assay, E. coli ATCC 25922; assay type: cell-based, Escherichia coli; conditions: Table 5; E. coli ATCC 25922, WT with O-antigen
Description: as §2, §3

## CSCC[C@H](NC(=O)[C@@H]1CCCN1C(=O)[C@H](Cc1ccc(O)cc1)NC(C)=O)C(=O)N[C@@H](CN)C(=O)N[C@@H](Cc1ccccc1)C(=O)N[C@@H](CCCNC(=N)N)C(=O)N[C@@H](CCCNC(=N)N)C(=O)N[C@@H](Cc1ccccc1)C(=O)N[C@@H](CC(C)C)C(=O)N[C@@H](CCC(=O)O)C(=O)N[C@@H](CCCCN)C(=O)N[C@@H](Cc1c[nH]c2ccccc12)C(=O)NCC(=O)N[C@@H](CC(C)C)C(=O)N[C@@H](CC(C)C)C(=O)N[C@@H](CCCNC(=N)N)C(N)=O [SEQ ID NO: 69, YPM(Dap)FRRFLEKWGLLR] (Ac-YPM[Dap]FRRFLEKWGLLR-NH2)
[1]
  MICs: 100 µM
[2]
  MICs: 12.5 µM
[3]
  MICs: 12.5 µM
[4]
  MICs: 25 µM
[5]
  MICs: 25 µM
[6]
  MICs: 12.5 to 200 µM
[7]
  growth inhibition: impacted only at very high concentrations
[8]
  time-kill kinetics (CFUs over time): bactericidal
[9]
  MICs: 200 µM
[10]
  MICs: 400 µM
[11]
  MICs: 6.25 µM
[12]
  red blood cell lysis: no observe lysis
[13]
  MICs: 12.5 µM
[14]
  MICs: 12.5 to 25 µM
[15]
  MICs: 50 µM
